These results are taken from article PMC7765948, “Spadin Modulates Astrocytic Passive Conductance via Inhibition of TWIK-1/TREK-1 Heterodimeric Channels” (International Journal of Molecular Sciences, 2020).

The test system of one assay is TREK-1. The note with it: cited from earlier work; for reduction of TREK-1 activity: antidepressants. Here is the method:
(§1) Because of the typical linear I–V relationship of astrocytic passive conductance, it has been speculated that astrocytic passive conductance is carried by non-voltage-gated K^+ channels.

In assay [1] the test system is astrocytic passive conductance in mouse hippocampal slices. The assay can be described thus: Whole-cell patch clamp of astrocytic passive conductance in hippocampal slices. Format: cell-based, mouse (C57BL/6). The note with it: quinidine 200 μM versus spadin 10 μM. Here is the method: Lentiviruses were injected into hippocampal CA1 region (AP: 0.17, ML: 0.17, DV: 0.19) of 7–8 week-old wild-type C57BL/6 mice. The virus-infected mouse brain slices (350 μm) containing the hippocampus were […]. Individual hippocampal slices were transferred to a recording chamber, which was constantly perfused with artificial cerebrospinal fluid (ACSF) recording solution containing (in mM) 130 NaCl, 24 NaHCO3, 3.5 KCl, 1.25 NaH2PO4, 1.5 CaCl2, 1.5 MgCl2, and 10 glucose saturated with 95% O2–5% CO2 at pH 7.4. Brain slices were co-loaded with SR-101 (Sigma Aldrich, St. Louis, MO, USA; 1 mM) dye to identify the location of astrocytes in the CA1 region. The slices were recovered at room temperature for at least 1 h before SR101 incubation and electrophysiological recording. […] Whole-cell patch recordings were performed on hippocampal astrocytes with a voltage-clamp configuration using an Axopatch 700B (Axon Instruments, Union City, CA, USA). All data are presented as means ± standard error of the mean (s.e.m). The significance of data for comparison was assessed by Student’s t-test (paired t-test) or one-way ANOVA followed by Turkey’s post hoc test, and significance levels are given as: n.s: not significant, * p < 0.05, ** p < 0.01, *** p < 0.001, and **** p < 0.0001. […]
For orientation: In patch-clamp work, channel activity is measured electrically.

In another assay the test system is TWIK-1 (K274E). The note with it: 100 μM quinine; cited from earlier work. Here is the method: as §1
In assay [2] the test system is astrocytic passive conductance. As to conditions: 200 μM quinine; cited from earlier work. Here is the method: as §1
The mark [3] stands for this setting: conventional K^+ channel blockers.

Like-named read-outs stand apart in the source and are kept apart here.

With `Nc1ccncn1` [4-aminopyrimidine], in the assay on TREK-1 (setting [3]), the TREK-1 channel activity entry is “not”.

As for `CCCCC/C=C\C/C=C\C/C=C\C/C=C\CCCC(=O)O` [AA, arachidonic acid], the TREK-1 channel activation entry in the assay on TREK-1 is “activated”.

With `CNCCC(Oc1ccc(C(F)(F)F)cc1)c1ccccc1` (centres unmarked) [Fluoxetine], in the assay with TREK-1, the “reduction of TREK-1 activity” value is “effective in the reduction of TREK-1 activity”.

Regarding `Fc1ccc([C@@H]2CCNC[C@H]2COc2ccc3c(c2)OCO3)cc1` [paroxetine], the “reduction of TREK-1 activity” value in the assay with TREK-1 is “effective in the reduction of TREK-1 activity”. For `C=C[C@H]1C[N@@]2CC[C@H]1C[C@@H]2[C@@H](O)c1ccnc2ccc(OC)cc12` [quinidine], the TREK-1 channel activity result in the assay on TREK-1 (high-dose quinine or quinidine) was “affected”. Besides, in assay [1], the “concentration required for similar inhibition of passive conductance” value is reported as “required at a much higher concentration than spadin”. For `C=C[C@H]1C[N@@]2CC[C@H]1C[C@H]2[C@H](O)c1ccnc2ccc(OC)cc12` [quinine], the “cloned TWIK-1 (K274E) current” value in the assay with TWIK-1 (K274E) is given as “potently decreases”. Also, the “cloned TREK-1 current” value with TREK-1 (100 μM quinine) is recorded as “potently decreases”. Besides, the TREK-1 channel activity entry with TREK-1 (high-dose quinine or quinidine) was “affected”. Besides, the “inhibition of astrocytic passive conductance” value in assay [2] is reported as 58%. In the case of `CC[N+](CC)(CC)CC` [tetraethylammonium], the TREK-1 channel activity result with TREK-1 (setting [3]) is “not”.
